A word on the LD50: it is the dose at which mortality reaches 50%.

Consider 21 molecules from patent publication US3935229A, “Esters of 2-[(4-quinolyl)amino]-benzoic acids” (Synthelabo, priority 1973, dated 1976).

Series [1] concerns carragenine-induced oedema of the paw, Sherman rats. The experiment in a line: Carragenine-induced oedema test (oedema of the paw). The settings on record: Rattus norvegicus; rats, oral administration; read-out: Carragenine-induced oedema test AD (AD40 = 40% active dose). Type of series: in vivo.
Another series can be described thus: in vivo. The settings on record: mouse, in vivo, po. The protocol:
(§1) Tests were carried out on mice of both sexes, of the Swiss strain, of average weight 20 g. (± 2g.).

For series [2], the system named is pain induced, in Swiss mice, by the intraperitoneal injection of phenylquinone. The experiment in a line: Siegmund test (analgesic effect against pain induced by intraperitoneal phenylquinone). The format is in vivo. The settings on record: mice; for ED50: Mus musculus, read-out: Siegmund test AD50 (50% active dose); for analgesic effects of the peripheral type (Siegmund test), compared with amidopyrine and glafenine: oral, versus amidopyrine and glafenine. From the text: 1. Effect against pain induced, in Swiss mice, by the intraperitoneal injection of phenylquinone, in accordance with the experimental procedure of Siegmund (Proc. Soc. Exp. Biol. Med., 1957, 95, 729), modified by Cheymol (C.R. Soc. Biol., 1963, 157, 521) and Brittain (Nature, London, 1963, […], 895).

Series [3] relates to mice of both sexes, of the Swiss strain. The experiment in a line: in vivo. The settings on record: mice, oral administration. As for the experimental part: as §1
Series [4] deals with heated plate test, Swiss mice. The experiment in a line: Heated plate test (plate heated by acetone vapours; analgesic effects of the central type). The settings on record: oral, versus amidopyrine.

SMILES strings stand for the structures.

Regarding `Cc1c(N(C)C)c(=O)n(-c2ccccc2)n1C` [Amidopyrine, reference compound], the ED40 in series [1] worked out at 80 mg/kg. In “in vivo” (Acute toxicity LD50 (50% lethal dose), mice, oral administration), this molecule displayed an LD50 of 850 mg/kg. Also, the ED50 in series [2] (oral administration) was 50 mg/kg.

Consider `O=C(OCCN1CCN(c2ccc(Cl)cc2)CC1)c1ccccc1Nc1ccnc2cc(Cl)ccc12` [Compound 72-165, 2-(4'-p-Chlorophenyl-piperazino)-ethyl 2-(7'-chloro-4' quinolyl-amino)-benzoate], for which, in the series “in vivo”, the LD50 was greater than 2000 mg/kg. Besides, the ED50 in series [2] (oral administration) is 50 mg/kg.

On to `O=C(OCCN1CCN(c2ccccc2)CC1)c1ccccc1Nc1ccnc2cc(C(F)(F)F)ccc12` [Compound 72-242, 2-(4'-Phenyl-piperazino)-ethyl 2-(7'-trifluoro-methyl-4'quinolyl-amino)-benzoate], for which, in series [1], the ED40 stood at 40 mg/kg. In addition, the LD50 in “in vivo” was greater than 3000 mg/kg. Also, the ED50 in series [2] (oral administration) is 25 mg/kg. In series [2], the “analgesic effects of the peripheral type (Siegmund test), compared with amidopyrine and glafenine” value is recorded as “generally much more active”.

As for `O=C(OCCN1CCN(c2ccccc2)CC1)c1ccccc1Nc1ccnc2cc(SC(F)(F)F)ccc12` [Compound 72-244, 2-(4'-Phenyl-piperazino)-ethyl 2-(7'-trifluoromethylthio-4'-quinolyl-amino)-benzoate], the “Acute toxicity LD50 (50% lethal dose)” value in series [3] is recorded as 1,200 mg/kg. Further, the ED50 in series [2] (oral administration) was determined as 10 mg/kg. Moreover, in series [2], the “analgesic effects of the peripheral type (Siegmund test), compared with amidopyrine and glafenine” value was “generally much more active”.

Turning to `Cc1cccc(N2CCN(CCOC(=O)c3ccccc3Nc3ccnc4cc(Cl)ccc34)CC2)c1C` [Compound 72-248, 2-[4'-(2",3"-Dimethyl-phenyl)-piperazino]-ethyl 2-(7'-chloro-4'-quinolyl-amino)-benzoate], the ED40 in series [1] amounted to 120 mg/kg. In “in vivo”, this molecule had a 50% lethal dose (LD50) of 1900 mg/kg. For the same molecule, the ED50 in series [2] (oral administration) was 20 mg/kg. Also, the “analgesic effects of the peripheral type (Siegmund test), compared with amidopyrine and glafenine” value in series [2] was “generally much more active”.

Regarding `O=C(OCCN1CCN(c2cccc(Cl)c2)CC1)c1ccccc1Nc1ccnc2cc(Cl)ccc12` [Compound 73-018, 2-(4'-m-Chlorophenyl-piperazino)-ethyl 2-(7'-chloro-4'-quinolyl-amino)-benzoate], in series [1], the ED40 was 120 mg/kg. In series [4], the “analgesic effects of the central type (heated plate test), compared with amidopyrine” value is recorded as “greater than that of amidopyrine” and the “extent of the greater activity than amidopyrine in the heated plate test” value is listed as “considerable”. Further, the 50% lethal dose (LD50) in “in vivo” was 4000 mg/kg. Further, the ED50 in series [2] (oral administration) was 6 mg/kg. In addition, the “analgesic effects of the peripheral type (Siegmund test), compared with amidopyrine and glafenine” value in series [2] is “generally much more active”.

With `O=C(OCCN1CCN(c2cccc(OC(F)(F)F)c2)CC1)c1ccccc1Nc1ccnc2cc(Cl)ccc12` [Compound 73-030, 2-(4'-m-Trifluoromethoxyphenyl-piperazino)-ethyl 2-(7'-chloro-4'-quinolyl-amino)-benzoate], in series [1], the ED40 was 50 mg/kg. This molecule also registered an LD50 in “in vivo” greater than 4000 mg/kg. Besides, the ED50 in series [2] (oral administration) amounted to 100 mg/kg.

For the molecule `O=C(OCCN1CCN(c2cccc(SC(F)(F)F)c2)CC1)c1ccccc1Nc1ccnc2cc(Cl)ccc12` [Compound 73-031, 2-(4'-m-Trifluoromethylthiophenyl-piperazino)-ethyl 2-(7'-chloro-4'-quinolyl-amino)-benzoate], in series [1], the ED40 turned out to be 30 mg/kg. This molecule came in with an LD50 in the series “in vivo” of 3000 mg/kg. For the same molecule, the ED50 in series [2] (oral administration) came out at 100 mg/kg.

For `O=C(OCCN1CCN(c2cccc(C(F)(F)F)c2)CC1)c1ccccc1Nc1ccnc2cc(C(F)(F)F)ccc12` [Compound 73-033, 2-(4'-m-Trifluoromethylphenyl-piperazino)-ethyl 2-(7'-trifluoromethyl-4'-quinolyl-amino)-benzoate], in series [3], the “Acute toxicity LD50 (50% lethal dose)” value is reported as 4,000 mg/kg. In series [2] (oral administration), the “Siegmund test AD50 (50% active dose)” value was 5 mg/kg.

Turning to `O=C(OCCN1CCN(c2cccc(Cl)c2)CC1)c1ccccc1Nc1ccnc2cc(C(F)(F)F)ccc12` [Compound 73-045, 2-(4'-m-Chlorophenyl-piperazino)-ethyl 2-(7'-trifluromethyl-4'-quinolyl-amino)-benzoate], in series [1], the ED40 was found to be 30 mg/kg. The “analgesic effects of the central type (heated plate test), compared with amidopyrine” value in series [4] is “greater than that of amidopyrine”. In “in vivo”, this molecule yielded an LD50 greater than 4000 mg/kg. Also, in series [2] (oral administration), the ED50 was 8 mg/kg. The “analgesic effects of the peripheral type (Siegmund test), compared with amidopyrine and glafenine” value in series [2] is recorded as “generally much more active”.

`Cc1c(Cl)cccc1N1CCN(CCOC(=O)c2ccccc2Nc2ccnc3cc(Cl)ccc23)CC1` [Compound 73-046, 2-[4'-(3"-Chloro-2"-methyl-phenyl)-piperazino]-ethyl 2-(7'-chloro-4'-quinolyl-amino)-benzoate]: the ED40 in series [1] turned out to be 30 mg/kg. The LD50 in “in vivo” was greater than 2000 mg/kg. For the same molecule, the ED50 in series [2] (oral administration) was 13 mg/kg. Moreover, the “analgesic effects of the peripheral type (Siegmund test), compared with amidopyrine and glafenine” value in series [2] was “generally much more active”.

Turning to `Cc1c(Cl)cccc1N1CCN(CCOC(=O)c2ccccc2Nc2ccnc3cc(C(F)(F)F)ccc23)CC1` [Compound 73-047, 2-[4'-(3"-Chloro-2"-methyl-phenyl)-piperazino]-ethyl 2-(7'-trifluoromethyl-4'-quinolyl-amino)-benzoate], the ED40 in series [1] was found to be 65 mg/kg. For the same molecule, the median lethal dose (LD50) in “in vivo” was found to be 3000 mg/kg. In addition, the ED50 in series [2] (oral administration) came to 16 mg/kg. For the same molecule, the “analgesic effects of the peripheral type (Siegmund test), compared with amidopyrine and glafenine” value in series [2] is “generally much more active”.

Turning to `O=C(OCCN1CCN(c2cccc(SC(F)(F)F)c2)CC1)c1ccccc1Nc1ccnc2cc(C(F)(F)F)ccc12` [Compound 73-048, 2-(4'-m-Trifluoromethylthiophenyl-piperazino)-ethyl 2-(7'-trifluoromethyl-4'-quinolyl-amino)-benzoate], the ED40 in series [1] came out at 30 mg/kg. In “in vivo”, the LD50 came out at 4000 mg/kg. In addition, the ED50 in series [2] (oral administration) amounted to 6 mg/kg. Besides, in series [2], the “analgesic effects of the peripheral type (Siegmund test), compared with amidopyrine and glafenine” value was “generally much more active”.

Regarding `O=C(OCCN1CCN(c2cccc(OC(F)(F)F)c2)CC1)c1ccccc1Nc1ccnc2cc(C(F)(F)F)ccc12` [Compound 73-051, 2-(4'-m-trifluoromethoxyphenyl-piperazino)-ethyl 2-(7'-trifluoromethyl-4'-quinolyl-amino)-benzoate], in series [1], the ED40 turned out to be 50 mg/kg. This molecule also showed an LD50 in “in vivo” greater than 4000 mg/kg. Besides, the ED50 in series [2] (oral administration) amounted to 16 mg/kg. Moreover, in series [2], the “analgesic effects of the peripheral type (Siegmund test), compared with amidopyrine and glafenine” value is “generally much more active”.

Consider `O=C(OCCN1CCN(c2cccc(SC(F)(F)F)c2)CC1)c1ccccc1Nc1ccnc2cc(SC(F)(F)F)ccc12` [Compound 73-069, 2-(4'-m-Trifluoromethylthiophenyl-piperazino)-ethyl 2-(7'-trifluoromethylthio-4'-quinolyl-amino)-benzoate], for which the ED40 in series [1] amounted to 55 mg/kg. For the same molecule, in series [3], the “Acute toxicity LD50 (50% lethal dose)” value is given as 2,200 mg/kg. In addition, the ED50 in series [2] (oral administration) was determined as 50 mg/kg.

Take `O=C(OCCN1CCN(c2cc(C(F)(F)F)cc(C(F)(F)F)c2)CC1)c1ccccc1Nc1ccnc2cc(C(F)(F)F)ccc12` [Compound 73-070, 2-[4'-(3",5"-Di-trifluoromethyl-phenyl)-piperazino]-ethyl 2-(7'-trifluoromethyl-4'-quinolyl-amino)-benzoate]: in series [1], the ED40 is greater than 80 mg/kg. In “in vivo”, this molecule registered a median lethal dose (LD50) greater than 4000 mg/kg. The ED50 in series [2] (oral administration) came to 16 mg/kg.

Turning to `CCCCC1C(=O)N(c2ccccc2)N(c2ccccc2)C1=O` [Phenylbutazone, reference compound], the ED40 in series [1] was 30 mg/kg. Also, the ED50 in series [2] (oral administration) worked out at 90 mg/kg.

With `O=C(OCCN1CCN(c2cccc(C(F)(F)F)c2)CC1)c1ccccc1Nc1ccnc2c(C(F)(F)F)cccc12` [SLB 179, 2-(4'-m-Trifluoromethylphenyl-piperazino)-ethyl 2-(8'-trifluoromethyl-4'-quinolyl-amino)-benzoate], the ED40 in series [1] was 120 mg/kg. For the same molecule, the “analgesic effects of the central type (heated plate test), compared with amidopyrine” value in series [4] is reported as “greater than that of amidopyrine”. Also, the 50% lethal dose (LD50) in “in vivo” was greater than 3000 mg/kg. In series [2] (oral administration), the ED50 amounted to 25 mg/kg. Also, in series [2], the “analgesic effects of the peripheral type (Siegmund test), compared with amidopyrine and glafenine” value was “generally much more active”.

Regarding `O=C(OCCN1CCN(c2cccc(Cl)c2)CC1)c1ccccc1Nc1ccnc2c(C(F)(F)F)cccc12` [SLB 180, 2-(4'-m-Chlorophenyl-piperazino)-ethyl 2-(8'-trifluoromethyl-4'-quinolyl-amino)-benzoate], in series [1], the ED40 is greater than 100 mg/kg. This molecule showed an LD50 in the series “in vivo” greater than 3000 mg/kg. For the same molecule, the ED50 in series [2] (oral administration) came out at 12 mg/kg. In addition, the “analgesic effects of the peripheral type (Siegmund test), compared with amidopyrine and glafenine” value in series [2] is on record as “generally much more active”.

Take `O=C(OCCN1CCN(c2ccccc2)CC1)c1ccccc1Nc1ccnc2c(C(F)(F)F)cccc12` [SLB 181, 2-(4'-Phenyl-piperazino)-ethyl 2-(8'-trifluoromethyl-4'-quinolyl-amino)-benzoate]: in series [1], the ED40 is 45 mg/kg. For the same molecule, the 50% lethal dose (LD50) in “in vivo” stood at 2000 mg/kg. Also, the ED50 in series [2] (oral administration) came out at 12 mg/kg. Moreover, the “analgesic effects of the peripheral type (Siegmund test), compared with amidopyrine and glafenine” value in series [2] is “generally much more active”.

Turning to `O=C(OCCN1CCN(c2cccc(SC(F)(F)F)c2)CC1)c1ccccc1Nc1ccnc2c(C(F)(F)F)cccc12` [SLB 182, 2-(4'-m-Trifluoromethylthiophenyl-piperazino)-ethyl 2-(8'-trifluoromethyl-4'-quinolyl-amino)-benzoate], the ED40 in series [1] was found to be 150 mg/kg. The molecule also yielded an LD50 in the series “in vivo” greater than 3000 mg/kg. In series [2] (oral administration), the ED50 amounted to 5 mg/kg. The “analgesic effects of the peripheral type (Siegmund test), compared with amidopyrine and glafenine” value in series [2] was “generally much more active”.
